In BigSolDB 2.1:

c1ccc2c(c1)sc1ccccc12
solubility (mole fraction)
Details | in acetonitrile | in ethanol | in formic acid | in isopropanol | in methanol | in n-butanol
278.15 K | 0.00454 | 0.00347 | 0.000475 | 0.00245 | 0.00126 | 0.00485
283.15 K | 0.00611 | 0.00433 | 0.000578 | 0.00347 | 0.00163 | 0.00621
288.15 K | 0.00845 | 0.00529 | 0.000668 | 0.00436 | 0.00192 | 0.00788
293.15 K | 0.0128 | 0.00619 | 0.000756 | 0.00577 | 0.00242 | 0.00999
298.15 K | 0.0157 | 0.0075 | 0.000881 | 0.00703 | 0.0029 | 0.0132
303.15 K | 0.0189 | 0.00919 | 0.000995 | 0.00874 | 0.00331 | 0.016
308.15 K | 0.0241 | 0.0105 | 0.00112 | 0.0111 | 0.00406 | 0.0192
313.15 K | 0.0321 | 0.0127 | 0.00126 | 0.0136 | 0.00478 | 0.0242
318.15 K | 0.0402 | 0.0148 | 0.0014 | 0.0162 | 0.00573 | 0.0303
323.15 K | 0.0506 | 0.0174 | 0.00157 | 0.0202 | 0.00668 | 0.0381
328.15 K | 0.0639 | 0.0206 | 0.00177 | 0.0249 | 0.00795 | 0.0458
